Measured values as given in patent publication US12091411B2, “IRAK degraders and uses thereof” (Kymera Therapeutics, Inc., priority 2022, dated 2024).
Where two headings read alike, the source gives them in different places.

Biological target: T1, IRAK4 (Homo sapiens, UniProt Q9NWZ3)
T1 construct: Degradation of IRAK4 in OCI-LY10 was quantitatively measured using Meso Scale Discovery technology; endogenous in cells; host or cells: OCI-LY10
T1 sequence (Q9NWZ3 1-460): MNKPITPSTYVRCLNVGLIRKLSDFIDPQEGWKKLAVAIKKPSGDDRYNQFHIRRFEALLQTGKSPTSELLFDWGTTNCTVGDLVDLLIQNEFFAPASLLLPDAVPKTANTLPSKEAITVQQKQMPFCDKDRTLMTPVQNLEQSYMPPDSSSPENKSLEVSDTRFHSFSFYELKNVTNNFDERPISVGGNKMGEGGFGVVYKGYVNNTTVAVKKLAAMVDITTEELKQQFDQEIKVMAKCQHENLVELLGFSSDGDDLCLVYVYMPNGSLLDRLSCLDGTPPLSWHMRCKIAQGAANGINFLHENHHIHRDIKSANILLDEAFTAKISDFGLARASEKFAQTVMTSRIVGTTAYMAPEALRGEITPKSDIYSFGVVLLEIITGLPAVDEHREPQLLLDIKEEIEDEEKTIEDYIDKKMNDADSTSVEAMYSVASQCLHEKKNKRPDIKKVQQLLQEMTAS
Assay: IRAK4 MSD Degradation in OCI-LY10
Type: cell-based
Settings: OCI-LY10 cells, MSD
Procedure, shortened: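 DC50, from a three-parameter logistic fit and reported as letter bins A (<0.01 μM), B, C, D (>0.2 μM or not tested), reflects IRAK4 loss measured by MSD electrochemiluminescence in OCI-LY10 lysates. Treatment: 8 doses, 1:3 steps, top 1 to 10 μM, 4 to 24 h, 37 °C.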

[1] = 4 hrs incubation, read-out: IRAK4 degradation in OCI-LY10 at 4 hrs: DC50
[2] = 24 hrs incubation, read-out: IRAK4 degradation in OCI-LY10 at 24 hrs: DC50

Structure (SMILES) | DC50 [1] | DC50 [2]
Cn1c(=O)n(C2CCC(=O)NC2=O)c2cccc(C#CCOC3CCN(C[C@H]4CC[C@H](n5cc(NC(=O)c6cccc7ccc(N8CCC8)nc67)c(C(F)F)n5)CC4)CC3)c21 (stereo partly drawn) [I-336] | > 0.2 µM | > 0.2 µM
Cn1c(=O)n(C2CCC(=O)NC2=O)c2cccc(C#CCN3CCN(C[C@H]4CC[C@H](n5cc(NC(=O)c6cnn7ccc(N8CC9CC(C8)O9)nc67)c(C(F)F)n5)CC4)CC3)c21 (stereo partly drawn) [I-337] | > 0.2 µM | < 0.01 µM
Cn1c(=O)n(C2CCC(=O)NC2=O)c2cccc(C#CCN3CCN(C[C@H]4CC[C@H](n5cc(NC(=O)c6cnn7ccc(N8C9COCC8C9)nc67)c(C(F)F)n5)CC4)CC3)c21 (stereo partly drawn) [I-338] | > 0.2 µM | < 0.01 µM
Cn1c(=O)n(C2CCC(=O)NC2=O)c2cccc(C#CCN3CCN(C[C@H]4CC[C@H](n5cc(NC(=O)c6cnn7ccc(N8C9CCC8COC9)nc67)c(C(F)F)n5)CC4)CC3)c21 (stereo partly drawn) [I-339] | < 0.01 µM | > 0.2 µM
Cn1c(=O)n(C2CCC(=O)NC2=O)c2cccc(C#CCN3CCN([C@H]4CC[C@H](n5cc(NC(=O)c6cnn7ccc(N8C[C@H]9C[C@@H]8CO9)nc67)c(C(F)F)n5)CC4)CC3)c21 (stereo partly drawn) [I-340] | > 0.2 µM | > 0.2 µM
Cn1c(=O)n(C2CCC(=O)NC2=O)c2cccc(C#COCC3CCN([C@H]4CC[C@H](n5cc(NC(=O)c6cnn7ccc(N8C[C@H]9C[C@@H]8CO9)nc67)c(C(F)F)n5)CC4)CC3)c21 (stereo partly drawn) [I-341] | > 0.2 µM | > 0.2 µM
Cn1c(=O)n(C2CCC(=O)NC2=O)c2cccc(C#CCN3CC4CCC(C3)N4C[C@H]3CC[C@H](n4cc(NC(=O)c5cnn6ccc(N7C[C@H]8C[C@@H]7CO8)nc56)c(C(F)F)n4)CC3)c21 (stereo partly drawn) [I-342] | < 0.01 µM | > 0.2 µM
Cn1c(=O)n(C2CCC(=O)NC2=O)c2cccc(C#CCN3C4CCC3CN(C[C@H]3CC[C@H](n5cc(NC(=O)c6cnn7ccc(N8C[C@H]9C[C@@H]8CO9)nc67)c(C(F)F)n5)CC3)C4)c21 (stereo partly drawn) [I-343] | > 0.2 µM | < 0.01 µM
Cn1c(=O)n(C2CCC(=O)NC2=O)c2cccc(C#CCN3CC4CC(C3)N4C[C@H]3CC[C@H](n4cc(NC(=O)c5cnn6ccc(N7C[C@H]8C[C@@H]7CO8)nc56)c(C(F)F)n4)CC3)c21 (stereo partly drawn) [I-344] | > 0.2 µM | > 0.2 µM
Cn1c(=O)n(C2CCC(=O)NC2=O)c2cccc(C#CCN3C4CC3CN(C[C@H]3CC[C@H](n5cc(NC(=O)c6cnn7ccc(N8C[C@H]9C[C@@H]8CO9)nc67)c(C(F)F)n5)CC3)C4)c21 (stereo partly drawn) [I-345] | 0.01 to 0.1 µM | > 0.2 µM
Cn1c(=O)n(C2CCC(=O)NC2=O)c2cccc(C#CCN3CC4COCC(C3)N4C[C@H]3CC[C@H](n4cc(NC(=O)c5cnn6ccc(N7C[C@H]8C[C@@H]7CO8)nc56)c(C(F)F)n4)CC3)c21 (stereo partly drawn) [I-348] | 0.1 to 0.2 µM | > 0.2 µM
Cn1c(=O)n(C2CCC(=O)NC2=O)c2cccc(C#CCN3C4COCC3CN(C[C@H]3CC[C@H](n5cc(NC(=O)c6cnn7ccc(N8C[C@H]9C[C@@H]8CO9)nc67)c(C(F)F)n5)CC3)C4)c21 (stereo partly drawn) [I-349] | 0.01 to 0.1 µM | > 0.2 µM
Cn1c(=O)n(C2CCC(=O)NC2=O)c2cccc(C#CCN3CCN(C[C@H]4CC[C@H](n5cc(NC(=O)c6cnn7ccc(C8COC8)nc67)c(C(F)F)n5)CC4)CC3)c21 (stereo partly drawn) [I-351] | > 0.2 µM | > 0.2 µM
Cn1c(=O)n(C2CCC(=O)NC2=O)c2cccc(C#CCN3CCN(C[C@H]4CC[C@H](n5cc(NC(=O)c6cnn7ccc(N8CC(C)(C)OC(C)(C)C8)nc67)c(C(F)F)n5)CC4)CC3)c21 (stereo partly drawn) [I-352] | 0.01 to 0.1 µM | > 0.2 µM
Cn1c(=O)n(C2CCC(=O)NC2=O)c2cccc(C#CCN3CCN(C[C@H]4CC[C@H](n5cc(NC(=O)c6cnn7ccc([C@@H]8CCOC8)nc67)c(C(F)F)n5)CC4)CC3)c21 (stereo partly drawn) [I-353] | > 0.2 µM | > 0.2 µM
Cn1c(=O)n(C2CCC(=O)NC2=O)c2cccc(C#CCN3CCN(C[C@H]4CC[C@H](n5cc(NC(=O)c6cnn7ccc([C@H]8CCOC8)nc67)c(C(F)F)n5)CC4)CC3)c21 (stereo partly drawn) [I-354] | > 0.2 µM | > 0.2 µM
CN(C[C@H]1CC[C@H](n2cc(NC(=O)c3cnn4ccc(N5CC(C)(C)OC(C)(C)C5)nc34)c(C(F)F)n2)CC1)C1CCN(c2cccc3c2n(C)c(=O)n3C2CCC(=O)NC2=O)CC1 (stereo partly drawn) [I-355] | 0.01 to 0.1 µM | > 0.2 µM
CN(C[C@H]1CC[C@H](n2cc(NC(=O)c3cnn4ccc(N5CCOC6(CC6)C5)nc34)c(C(F)F)n2)CC1)C1CCN(c2cccc3c2n(C)c(=O)n3C2CCC(=O)NC2=O)CC1 (stereo partly drawn) [I-356] | > 0.2 µM | < 0.01 µM

Structure (SMILES) | DC50 [1] | DC50 [2]
CN(C[C@H]1CC[C@H](n2cc(NC(=O)c3cnn4ccc(N5CCOC6(CCC6)C5)nc34)c(C(F)F)n2)CC1)C1CCN(c2cccc3c2n(C)c(=O)n3C2CCC(=O)NC2=O)CC1 (stereo partly drawn) [I-357] | > 0.2 µM | < 0.01 µM
CC1CN(c2ccn3ncc(C(=O)Nc4cn([C@H]5CC[C@H](CN(C)C6CCN(c7cccc8c7n(C)c(=O)n8C7CCC(=O)NC7=O)CC6)CC5)nc4C(F)F)c3n2)CCO1 (stereo partly drawn) [I-358] | > 0.2 µM | > 0.2 µM
CC1CN(c2ccn3ncc(C(=O)Nc4cn([C@H]5CC[C@H](CN(C)C6CCN(c7cccc8c7n(C)c(=O)n8C7CCC(=O)NC7=O)CC6)CC5)nc4C(F)F)c3n2)CC(C)O1 (stereo partly drawn) [I-359] | > 0.2 µM | > 0.2 µM
CN(C[C@H]1CC[C@H](n2cc(NC(=O)c3cnn4ccc(N5C[C@H]6CC[C@@H](C5)O6)nc34)c(C(F)F)n2)CC1)C1CCN(c2cccc3c2n(C)c(=O)n3C2CCC(=O)NC2=O)CC1 (stereo partly drawn) [I-360] | > 0.2 µM | < 0.01 µM
CN(C[C@H]1CC[C@H](n2cc(NC(=O)c3cnn4ccc(C5COC5)nc34)c(C(F)F)n2)CC1)C1CCN(c2cccc3c2n(C)c(=O)n3C2CCC(=O)NC2=O)CC1 (stereo partly drawn) [I-361] | > 0.2 µM | > 0.2 µM
Cn1c(=O)n(C2CCC(=O)NC2=O)c2cccc([C@H]3CC[C@H](CN4CCN(C[C@H]5CC[C@H](n6cc(NC(=O)c7cnn8ccc(N9C[C@H]%10C[C@@H]9CO%10)nc78)c(C(F)F)n6)CC5)CC4)CC3)c21 (stereo partly drawn) [I-362] | < 0.01 µM | > 0.2 µM
Cn1c(=O)n(C2CCC(=O)NC2=O)c2cccc(N3CC[C@@H](CN4CCN(C[C@H]5CC[C@H](n6cc(NC(=O)c7cnn8ccc(N9C[C@H]%10C[C@@H]9CO%10)nc78)c(C(F)F)n6)CC5)CC4)C3)c21 (stereo partly drawn) [I-363] | > 0.2 µM | > 0.2 µM
Cn1c(=O)n(C2CCC(=O)NC2=O)c2cccc(N3CC[C@H](CN4CCN(C[C@H]5CC[C@H](n6cc(NC(=O)c7cnn8ccc(N9C[C@H]%10C[C@@H]9CO%10)nc78)c(C(F)F)n6)CC5)CC4)C3)c21 (stereo partly drawn) [I-364] | > 0.2 µM | > 0.2 µM
Cn1c(=O)n(C2CCC(=O)NC2=O)c2cccc(N3CCN([C@@H]4CCN(C[C@H]5CC[C@H](n6cc(NC(=O)c7cnn8ccc(N9C[C@H]%10C[C@@H]9CO%10)nc78)c(C(F)F)n6)CC5)CC4(F)F)CC3)c21 (stereo partly drawn) [I-365] | > 0.2 µM | > 0.2 µM
Cn1c(=O)n(C2CCC(=O)NC2=O)c2cccc(N3CCN([C@H]4CCN(C[C@H]5CC[C@H](n6cc(NC(=O)c7cnn8ccc(N9C[C@H]%10C[C@@H]9CO%10)nc78)c(C(F)F)n6)CC5)CC4(F)F)CC3)c21 (stereo partly drawn) [I-366] | > 0.2 µM | > 0.2 µM
Cn1c(=O)n(C2CCC(=O)NC2=O)c2cccc(N3CCC(N4CCN(C[C@H]5CC[C@H](n6cc(NC(=O)c7cnn8ccc(N9C[C@H]%10C[C@@H]9CO%10)nc78)c(C(F)F)n6)CC5)CC4)CC3)c21 (stereo partly drawn) [I-367] | > 0.2 µM | > 0.2 µM
Cn1c(=O)n(C2CCC(=O)NC2=O)c2cccc(N3CCC(N(C[C@H]4CC[C@H](n5cc(NC(=O)c6cnn7cccnc67)c(C(F)F)n5)CC4)C(F)(F)F)CC3)c21 (stereo partly drawn) [I-368] | > 0.2 µM | > 0.2 µM
Cn1c(=O)n(C2CCC(=O)NC2=O)c2cccc(C#CCN3CCN(Cc4ccc(-n5cc(NC(=O)c6cnn7ccc(N8C[C@H]9C[C@@H]8CO9)nc67)c(C(F)F)n5)cc4)CC3)c21 (stereo partly drawn) [I-369] | < 0.01 µM | > 0.2 µM
Cn1c(=O)n(C2CCC(=O)NC2=O)c2cccc(C#CCOC3CCN(Cc4ccc(-n5cc(NC(=O)c6cnn7ccc(N8C[C@H]9C[C@@H]8CO9)nc67)c(C(F)F)n5)cc4)CC3)c21 (stereo partly drawn) [I-370] | 0.01 to 0.1 µM | > 0.2 µM
Cn1c(=O)n(C2CCC(=O)NC2=O)c2cccc(C#CCOc3ccc(CN4CCC(n5cc(NC(=O)c6cnn7ccc(N8CC9C[C@@H]8CO9)nc67)c(C(F)F)n5)CC4)cc3)c21 (stereo partly drawn) [I-371] | > 0.2 µM | > 0.2 µM
Cn1c(=O)n(C2CCC(=O)NC2=O)c2cccc(C#CCc3ccc(CN4CCC(n5cc(NC(=O)c6cnn7ccc(N8CC9C[C@@H]8CO9)nc67)c(C(F)F)n5)CC4)cc3)c21 (stereo partly drawn) [I-372] | > 0.2 µM | > 0.2 µM
CN(CC1CCN(c2cccc3c2n(C)c(=O)n3C2CCC(=O)NC2=O)CC1)c1ccc(-n2cc(NC(=O)c3cnn4cccnc34)c(C(F)F)n2)cc1 (stereo not drawn) [I-373] | > 0.2 µM | > 0.2 µM
Cn1c(=O)n(C2CCC(=O)NC2=O)c2cccc(C#CCC3CCN(C[C@H]4CC[C@H](n5cc(NC(=O)c6cnn7ccc(N8C[C@H]9C[C@@H]8CO9)nc67)c(C(F)F)n5)CC4)CC3(F)F)c21 (stereo partly drawn) [I-374] | 0.01 to 0.1 µM | > 0.2 µM
